The NIST ThermoML archive (doi:10.1016/j.jct.2016.12.007)
± gives the expanded uncertainty stated by the source.

Experiments:
[1] = refractive index (Na D-line) (dimensionless); wn = mass fraction of the nth substance listed; details: 101.3 kPa, Liquid, Standard Abbe refractometry
[2] = wn = mass fraction of the nth substance listed; details: 101.3 kPa, Liquid, Vibrating tube method

Row | refractive index ([1]; 288.15 K, w1 = 0.2622) | refractive index ([1]; 298.15 K, w1 = 0.2625) | refractive index ([1]; 308.15 K, w1 = 0.2666) | mass density ([2]; 288.15 K, w1 = 0.2622) | mass density ([2]; 298.15 K, w1 = 0.2625) | mass density ([2]; 308.15 K, w1 = 0.2666) | refractive index ([1]; 288.15 K, w1 = 0.4695) | refractive index ([1]; 298.15 K, w1 = 0.4841) | refractive index ([1]; 308.15 K, w1 = 0.5041) | mass density ([2]; 288.15 K, w1 = 0.4695) | mass density ([2]; 298.15 K, w1 = 0.4841) | mass density ([2]; 308.15 K, w1 = 0.5041) | Structure (SMILES)
1 | 1.3811 ± 0.0005 | 1.3795 ± 0.0005 | 1.3781 ± 0.0005 | 1201 ± 4.2 kg/m3 | 1197.8 ± 4.2 kg/m3 | 1193.6 ± 4.2 kg/m3 |  |  |  |  |  |  | [Cl-].[Na+] [sodium chloride] + O
2 |  |  |  |  |  |  | 1.3874 ± 0.0005 | 1.3883 ± 0.0005 | 1.3894 ± 0.0005 | 1480.4 ± 4.3 kg/m3 | 1500.3 ± 4.3 kg/m3 | 1517.5 ± 4.3 kg/m3 | [Cl-].[Rb+] [rubidium chloride] + O
